Results: patent USRE41784E1, “Adhesive material” (Sony Corporation, priority 2000, dated 2010)
Like-named read-outs stand apart in the source and are kept apart here.

Key:
skin of rabbits [1] = experiment: Draize test (skin irritation, PII value); conditions: for PII value: preferred acrylic/methacrylic acid esters; for PH value: starting material (component) of the adhesive materials
From the text: (§1) The PII, or skin irritation, value is a skin toxicity index measured in accordance with the method defined by the Consumer Product Safety Commission of the USA (Draize Method; The Consumer Product Safely Commission of the USA, the Code of Federal Regulations, Title 16, Section 1500.41). A lower index corresponds to less pronounced skin irritation.
(§2) Hair was removed with the aid of an electric hair clipper from the lumbar regions of six healthy rabbits (body weight: 2.0-4.0 kg) to expose the skin over an area of about 10 cm^2. The skin on the right side of the vertebra was incised with a surgical knife over an area of 2.5 cm^2, creating a lesion. The skin on the left side of the vertebra was left intact, and pads obtained by applying 0.5 mL samples were affixed at two locations on the right and left of the vertebra. The pads were peeled off 24 and 72 hours following affixation, redness and swelling were visually observed, the results were graded using a five-point system (levels 0 to 4), a gross mean was obtained using the average values for each rabbit, and the gross mean value was termed the PII value.

[2] = system: mutant strain (his−) of Salmonella requiring histidine; conditions: starting material (component) of the adhesive materials
Method: The Ames test referred to herein is also known as a mutagenicity test, and is one of tests in which bacteria are used to screen chemical substances for carcinogenicity or mutagenicity. […] This mutation is the result of DNA damage, and carcinogenicity is believed to become more pronounced with increased ease of mutation. Consequently, an adhesive material having high biological safety must give a negative result of the Ames test.
This test was performed using direct reverse mutation of a mutant strain (his−) of Salmonella requiring histidine to a non-requiring strain (his+) under the action of a test substance. A specific test method involved preparing histidine-free media to which a metabolically active substance (S9) bad been added, and histidine-free media devoid of the metabolically active substance (S9). The test substance was admixed into these media, a strain (his−) requiring histidine was cultured, and the bacterial colony count of a medium containing the test substance was compared with the bacterial colony count of a medium devoid of the substance. If the first value was greater than the second, the test result was concluded to be positive, otherwise the result was concluded to be negative.

skin of rabbits [3] = conditions: rabbit, in vivo
From the text: as §1, §2

ditrimethylol propane tetraacrylate showed a PII value (skin of rabbits [1]) of 0.0.

With 1,3-butanediol methacrylate the PII value (skin of rabbits [1]) was 0.0.

With `C=C(C)C(=O)OCCO` [hydroxyethyl methacrylate] the PII value (skin of rabbits [1]) was 0.0.

Polypropylene glycol diacrylate was tested, and the Mutagenicity [2] was “negative”, the PH value (skin of rabbits [3]) was 0.0 and the PII value (skin of rabbits [3]) was 0.0.

`C=CC(=O)OCCOc1ccccc1` [Phenoxyethyl acrylate] showed a PH value (skin of rabbits [1]) of 1.5.

With `C=C(C)C(=O)OCC(C)(C)COC(=O)C(=C)C` [Neopentyl glycol dimethacrylate] the Mutagenicity [2] was “negative”, the PII value (skin of rabbits [1]) was 0.0 and the PH value (skin of rabbits [1]) was 0.0.

For `C=C(C)C(=O)OCC(C)O` (centres unmarked) [2-hydroxypropyl methacrylate], the PII value (skin of rabbits [1]) was 0.0.
